Five compounds from patent publication US12171744B2, “Pharmaceutical combinations for the treatment of cancer” (Presage Biosciences, Inc., priority 2016, dated 2024) can be followed below.

Data set [1] has as its system HCC1187 triple negative breast cancer cells. As to the kind of experiment: Western blot of treated cells. The data set is classed as cell-based. Conditions: for XBP1 expression: at 24 hours. As for the experimental part:
Cell lines shown in Table 1, adherent or suspension, were treated in 6-well dishes or T10 flasks respectively, seeded at one million per ml density prior to treatment in total volumes of 3-10 ml. All agents used for in vitro cell treatments were formulated in water/DMSO to achieve required concentrations (as stated in respective figure labels/legends) with DMSO concentrations not exceeding 0.01%. Drug sources are indicated in table under ‘CIVO microinjection studies’. Cells were harvested at experimental time points: 2, 6, or 24 hours post treatment as indicated in respective figures, first by washing cells twice in ice-cold PBS in 15 ml falcon tubes, centrifugation at 1000 rpm for 5 mins followed by lysis of the respective cell pellets as described in section below. Note: Drug resistant NUDHL1 Dox 1000 nM and Toledo Dox 1000 nM cell lines were generated at Presage by culturing parental lines in media with stepwise increments in Doxorubicin concentration over several passages. These cells were used to generate xenografts when resistance to 1 uM Dox was achieved.
Protein lysates were prepared by adding ice-cold 1×RIPA Buffer (from 10×, Millipore) with 1×-3× Halt protease and phosphatase inhibitor cocktail (100×, Pierce) to cell pellets, followed by pulse sonication (˜3-5 secs) three times. Lysates were cleared by centrifugation at 14K rpm for 15-20 mins and the supernatant (lysate) was collected for further analysis. To prepare lysates from cryopreserved xenograft tumor tissue, tissue was first homogenized using a hand-held tissue homogenizer (Cole Palmer) in above lysis buffer followed by pulse sonication and centrifugation as described above. Above steps were carried out under ice cold conditions. […] 20-25 micrograms of protein from each sample were subject to SDS-PAGE using BOLT 4-12% Bis-Tris gels (Thermofisher) and transferred to either 0.45 or 0.2 micron pore size membranes (as applicable based on protein molecular size), and either nitrocellulose (NC) or pvdf (Thermofisher) using manufacturer's protocol, blocked for one hour in 5% milk at room temperature, probed with primary antibodies (Table 2) at 4 deg C. overnight and corresponding HRP-conjugated secondary antibodies (Jackson Immunoresearch, 1:10,000-1:20,000 dilutions) for 1 hour at room temperature. Three PBS/0.01% Tween-20 washes (5-10 mins each) were carried out after each antibody incubation. ECL chemiluminescent substrate (Pierce or GE) and autoradiographic film (Thermofisher) was used for detection of protein signals.
1 ug of mRNA from each condition was used to generate cDNA using the High Capacity cDNA Reverse Transcription Kit (Applied Biosystems) and manufacturer's protocol. 100 ng cDNA was used to conduct a PCR assay to amplify XBP1 u or splice forms (Thermofisher PCR Supermix)—94 deg C. for 2 mins, (94 deg C. for 15 secs, 55 deg C. for 30 secs, 72 deg C. for 1 min)×30 cycles, 72 deg C. for 7 mins, hold at 4 deg C.
On the technique in general: A western blot detects proteins with antibodies after separation by electrophoresis.

Data set [2] relates to HCC1187 triple negative breast cancer (TNBC) xenograft model. Description: CIVO microinjection, MCL-1 and CC3 staining. Conditions: for expression of MCL-1: drug screen; for CC3 expression: marker of apoptosis. Type of data set: in vivo, mice. As for the experimental part:
(§1) Mice were enrolled into CIVO drug studies when the tumor volume reached approximately 1000 mm^3. Microinjection studies were performed using the CIVO device as previously described (Klinghoffer et al, Science Translational Medicine 2015) The device was configured with 6 injection needles set for a 6 mm injection length and a total volume delivery of 3 μl. A fluorescent tracking marker (FTM) was added to each drug reservoir in vehicle for delivery along with each drug or drug combination. All micro-doses were equivalent to or lower than what would be allowed under FDA guidelines for Exploratory IND (Investigational New Drug) studies and by solubility of drug into vehicle. Total amounts of agents injected are tabulated below in Table 4.
A drug screen was performed to test multiple drugs simultaneously.
FIG. 11 depicts a similar experiment performed on the HCC1187 triple negative breast cancer (TNBC) xenograft model. […] Cells were then stained for CC3 expression (shown in red) as a marker of apoptosis.
FIGS. 20A-20D depicts the HCC1187 triple negative breast cancer (TNBC) xenograft model. Briefly, cells were treated with vehicle, voruciclib alone, ixazomib alone, or voruciclib and ixazomib in combination. Cells were then stained for CC3 expression (shown in red) as a marker of apoptosis.

The next data set has as its system NudHL1 DLBCL xenografts. Description: CIVO microinjection, CC3 staining after 6 hours. Type of data set: in vivo, mice. Conditions: treated for 6 hours. As for the experimental part: Mice were enrolled into CIVO drug studies when the tumor volume reached approximately 1000 mm^3. Microinjection studies were performed using the CIVO device as previously described (Klinghoffer et al, Science Translational Medicine 2015) The device was configured with 6 injection needles set for a 6 mm injection length and a total volume delivery of 3 μl. A fluorescent tracking marker (FTM) was added to each drug reservoir in vehicle for delivery along with each drug or drug combination. […] Total amounts of agents injected are tabulated below in Table 4.
FIGS. 9A-9D depict cells that were treated as above and stained for cleaved caspase-3 (CC3) as a marker of apoptosis (shown in red).
FIGS. 10A-10D depict cells that were treated as above and stained for cleaved caspase-3 (CC3) as a marker of apoptosis (shown in red).

Data set [3] is described as follows: Body weight in HCC1187 TNBC mouse model. Conditions: in vivo.
Protocol: Mice were enrolled for study when tumors reached an average volume of 150-200 mm^3. Tumor volume was calculated as V=length×width×height, all three dimensions measured using digital calipers along with body weight. Animals were removed from the study when—any one of the three measured dimensions of the tumor exceeding 2 cm, volume exceeding 2500 mm^3, ulceration or body weight loss greater than 20%.
Another data set has as its system tissue section. As to the kind of experiment: Tissue section treated with bortezomib. The data set is classed as in vivo. Conditions: some cells appear resistant.
A further data set has as its target MAK (Homo sapiens, UniProt P20794). As to the kind of experiment: Kinase inhibition profile.
A further data set has as its target ICK (Homo sapiens, UniProt Q9UPZ9). As to the kind of experiment: Kinase inhibition profile. Type of data set: biochemical.
In the next data set the test system is tumor cells. As to the kind of experiment: Solid tumor section, CDK inhibitors in combination with ixazomib. Set-up: species or system mice. As to conditions: mouse, in vivo. The protocol:
as §1

MAK, sequence (P20794 whole entry): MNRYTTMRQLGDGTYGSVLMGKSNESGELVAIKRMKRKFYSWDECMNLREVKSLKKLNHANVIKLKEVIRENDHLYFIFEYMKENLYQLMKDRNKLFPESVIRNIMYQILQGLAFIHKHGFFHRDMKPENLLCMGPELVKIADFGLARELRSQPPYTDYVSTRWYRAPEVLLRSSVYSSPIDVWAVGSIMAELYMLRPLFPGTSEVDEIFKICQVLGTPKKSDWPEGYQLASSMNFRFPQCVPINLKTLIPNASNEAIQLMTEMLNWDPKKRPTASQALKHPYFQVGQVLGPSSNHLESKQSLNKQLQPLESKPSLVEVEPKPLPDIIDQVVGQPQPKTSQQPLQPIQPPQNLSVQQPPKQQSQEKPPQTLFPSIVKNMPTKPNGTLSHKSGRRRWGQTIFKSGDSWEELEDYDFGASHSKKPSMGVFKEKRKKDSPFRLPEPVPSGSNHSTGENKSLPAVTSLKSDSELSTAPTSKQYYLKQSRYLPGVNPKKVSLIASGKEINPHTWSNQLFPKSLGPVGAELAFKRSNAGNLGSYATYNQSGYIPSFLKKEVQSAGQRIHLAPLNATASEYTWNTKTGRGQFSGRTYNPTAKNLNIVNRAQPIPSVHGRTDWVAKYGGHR
ICK, sequence (Q9UPZ9 whole entry): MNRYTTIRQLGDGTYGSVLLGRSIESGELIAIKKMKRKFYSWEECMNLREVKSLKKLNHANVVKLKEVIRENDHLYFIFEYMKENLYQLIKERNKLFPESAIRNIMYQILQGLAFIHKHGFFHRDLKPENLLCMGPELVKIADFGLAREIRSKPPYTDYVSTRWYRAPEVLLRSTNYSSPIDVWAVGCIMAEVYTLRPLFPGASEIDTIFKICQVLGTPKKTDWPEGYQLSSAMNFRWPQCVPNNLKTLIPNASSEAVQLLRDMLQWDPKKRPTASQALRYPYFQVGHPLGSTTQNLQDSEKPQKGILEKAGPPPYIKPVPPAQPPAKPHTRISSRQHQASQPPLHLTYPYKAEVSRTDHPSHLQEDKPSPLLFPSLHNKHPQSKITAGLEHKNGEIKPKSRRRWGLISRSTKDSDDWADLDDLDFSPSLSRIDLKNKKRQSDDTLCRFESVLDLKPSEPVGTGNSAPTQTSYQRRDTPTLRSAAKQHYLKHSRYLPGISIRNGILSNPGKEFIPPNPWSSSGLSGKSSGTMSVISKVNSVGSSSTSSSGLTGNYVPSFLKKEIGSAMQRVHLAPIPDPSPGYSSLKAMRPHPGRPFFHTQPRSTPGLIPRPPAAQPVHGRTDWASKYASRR

For `CC(C)C[C@H](NC(=O)[C@H](Cc1ccccc1)NC(=O)c1cnccn1)B(O)O` [bortezomib], the MCL-1 protein expression result in data set [1] (Western blot, compared to untreated sample) is listed as “increased”. In addition, the XBP1 expression result in data set [1] is “strongly induced”. In addition, the “expression of MCL-1” value in data set [2] is on record as “increase”; in data set [2] (listed as Bortezomib) it was “markedly increased”. For the same compound, the CC3 expression result (in data set [2]; in the data set on NudHL1 DLBCL xenografts) was “little to no increase” each time. In data set [3], the “body weight of mice” value is reported as “unaffected”. In addition, in the data set on tissue section, the apoptosis entry was “induces apoptosis in some cells”.
Consider `CN1CC[C@H](c2c(O)cc(O)c3c(=O)cc(-c4ccccc4Cl)oc23)[C@H](O)C1` [flavopiradol, reference compound], for which the “inhibition of MAK” value against MAK is listed as “potent inhibitor”. Also, the “inhibition of ICK” value at ICK was “potent inhibitor”.
Consider `CC(C)C[C@H](NC(=O)CNC(=O)c1cc(Cl)ccc1Cl)B(O)O` [ixazomib], for which the “synergistic effect on apoptosis of tumor cells” value in the data set on tumor cells is “did not exhibit the synergistic effect”. Also, the CC3 expression result in data set [2] is given as “little to no increase”.
With `C[C@@]12OC(=O)[C@]1([C@@H](O)[C@@H]1C=CCCC1)NC(=O)[C@@H]2CCCl` [marizomib], the CC3 expression entry with NudHL1 DLBCL xenografts was “little to no increase”.
Turning to tunicamycin [reference compound], the “X-box binding protein 1 (XBP1) expression” value in data set [1] (at 6 hours) is on record as “strongly induced”. Further, the XBP1 expression entry in data set [1] was “strongly induced”.
